Values after ≈ are worked out from the molar mass of the structure shown.
Tests used:
[1] = tested on: Staphylococcus aureus ATCC 25923; assay: ≥ marks a high value that may be exact or a test limit, other limits are often not marked, values filed in µg/mL are converted to µM
[2] = tested on: Escherichia coli ATCC 25922; assay: as above

Row | MIC [1] [µM] | MIC [2] [µM] | Compound
1 | > 308 | 120 (≈ 200 µg/mL) | C[C@@H](O)[C@H](NC(=O)[C@H](CO)NC(=O)[C@H](CO)NC(=O)[C@@H](N)CCCCN)C(=O)N[C@@H](CCCN=C(N)N)C(=O)NCC(=O)N[C@@H](CCCN=C(N)N)C(=O)N[C@@H](CCCCN)C(=O)N[C@@H](CO)C(=O)N[C@@H](CO)C(=O)N[C@@H](CCCN=C(N)N)C(=O)N[C@@H](CCCN=C(N)N)C(=O)N[C@@H](CCCCN)C(=O)N[C@@H](CCCCN)C(=O)O [KSSTRGRKSSRRKK]
2 | – | 8 (≈ 16.5 µg/mL) | CC(C)C[C@H](NC(=O)[C@H](Cc1ccccc1)NC(=O)[C@@H]1CCCN1C(=O)[C@H](Cc1c[nH]c2ccccc12)NC(=O)[C@H](Cc1c[nH]c2ccccc12)NC(=O)[C@H](Cc1c[nH]c2ccccc12)NC(=O)[C@@H]1CCCN1C(=O)[C@H](Cc1ccccc1)NC(=O)[C@H](CCCN=C(N)N)NC(=O)[C@H](CCCN=C(N)N)NC(=O)[C@@H](NC(=O)[C@@H](NC(=O)CN)[C@@H](C)O)C(C)C)C(=O)N[C@@H](CCCN=C(N)N)C(=O)N[C@@H](CCCN=C(N)N)C(=O)O [GTVRRFPWWWPFLRR]
3 | – | 1.79 (≈ 2 µg/mL) | CC(C)C[C@H](NC(=O)[C@H](CCC(N)=O)NC(=O)[C@H](CCCCN)NC(=O)[C@H](CCCN=C(N)N)NC(=O)[C@H](Cc1ccccc1)NC(=O)[C@@H](N)CC(C)C)C(=O)N[C@@H](CCCCN)C(=O)N[C@@H](Cc1c[nH]c2ccccc12)C(=O)O [LFRKQLKW]
4 | 62 (≈ 68.9 µg/mL) | 30.6 (≈ 34 µg/mL) | CC[C@H](C)[C@H](NC(=O)[C@H](CC(N)=O)NC(=O)[C@H](CCCCN)NC(=O)[C@H](CC(C)C)NC(=O)[C@H](CC(C)C)NC(=O)CN)C(=O)N[C@@H](CCCCN)C(=O)N[C@H](C(=O)N[C@@H](CC(C)C)C(=O)N[C@@H](CC(C)C)C(N)=O)[C@@H](C)O [GLLKNIKTLL]
5 | > 38.7 | > 38.7 | CC[C@H](C)[C@H](NC(=O)[C@H](CCCN=C(N)N)NC(=O)[C@H](CCCCN)NC(=O)[C@H](CC(C)C)NC(=O)[C@H](C)NC(=O)CN)C(=O)N[C@@H](CCCCN)C(=O)N[C@H](C(=O)N[C@@H](CC(C)C)C(=O)N[C@@H](CC(C)C)C(N)=O)[C@@H](C)O [GALKRIKTLL]
6 | – | 12.5 (≈ 28 µg/mL) | CC[C@H](C)[C@H](NC(=O)[C@H](C)NC(=O)CNC(=O)[C@H](C)NC(=O)[C@H](CCCCN)NC(=O)[C@H](CO)NC(=O)[C@H](C)NC(=O)[C@H](CCSC)NC(=O)CN)C(=O)N[C@@H](C)C(=O)NCC(=O)N[C@@H](CCCCN)C(=O)N[C@H](C(=O)N[C@@H](C)C(=O)N[C@@H](CCCCN)C(=O)N[C@H](C(=O)N[C@@H](C)C(=O)N[C@@H](Cc1c[nH]c2ccccc12)C(=O)N[C@@H](CCCCN)C(=O)N[C@@H](C)C(=O)N[C@@H](CC(C)C)C(=O)NCC(=O)NCC(=O)N[C@@H](CO)C(N)=O)C(C)C)[C@@H](C)CC [GMASKAGAIAGKIAKVAWKALGGS]
7 | – | 200 (≈ 234 µg/mL) | CC[C@H](C)[C@H](NC(=O)[C@H](CCCN=C(N)N)NC(=O)[C@H](CCCCN)NC(=O)[C@H](CC(C)C)NC(=O)[C@H](CCSC)NC(=O)CN)C(=O)N[C@@H](CCCCN)C(=O)N[C@H](C(=O)N[C@@H](CC(C)C)C(=O)N[C@@H](CC(C)C)C(N)=O)[C@@H](C)O [GMLKRIKTLL]
8 | – | 130 (≈ 128 µg/mL) | CC(C)[C@H](NC(=O)[C@H](CC(N)=O)NC(=O)[C@H](CCCCN)NC(=O)[C@H](CCCN=C(N)N)NC(=O)[C@@H]1CCCN1C(=O)[C@H](C)N)C(=O)N[C@@H](CCCN=C(N)N)C(=O)N[C@@H](Cc1ccccc1)C(=O)O [APRKNVRF]
9 | – | 64.1 (≈ 64 µg/mL) | CC(C)[C@H](NC(=O)[C@H](CC(N)=O)NC(=O)[C@H](CCCCN)NC(=O)[C@H](CCCN=C(N)N)NC(=O)[C@@H]1CCCN1C(=O)[C@H](C)N)C(=O)N[C@@H](CCCCN)C(=O)N[C@@H](Cc1c[nH]c2ccccc12)C(=O)O [APRKNVKW]
